Laboratory results reported in patent US6890951B2, “Treatment of addiction and addiction-related behavior” (Brookhaven Science Associates LLC, priority 1998, dated 2005).
Read-outs that look alike come from different tables or passages of the source.

Key:
serotonin (5-HT) = assay: Microdialysis Example 15: extracellular serotonin after nicotine; assay type: in vivo; details: nicotine 0.4 mg/kg s.c., saline pretreated animals
Procedure: (§1) Briefly, two days prior to the microdialysis experiments, siliconized guide cannulae were implanted targeting the NAcc (A=+1.5 mm, L=−1.0 mm, V=−5.6 mm). […] Dialysate samples were assayed for monoamine content by microbore high-pressure liquid chromatography (HPLC) coupled with electrochemical detection. […] Peak effects were analyzed with a one-way ANOVA, and post-hoc Bonferroni t-test of topiramate pretreated groups compared to saline pretreated controls provided ANOVA significance at a critical value of 0.05.

rats [1] = assay: Nicotine-induced conditioned place preference; assay type: in vivo
Source text: A total of 8 rats were examined for each treatment pairing. Animals received 4 pairings over an 8 day period, one pairing per day. […] The protocol on days 1 and 2 was repeated 3 additional times.
The CPP apparatus was made entirely of plexiglass, except for the floor in one of the pairing chambers, which was made of a stainless steel plate with holes (0.5 mm in diameter) spaced 0.5 mm from edge to edge. The two pairing chambers differed in visual and tactile cues. One chamber was entirely light blue with the stainless steel floor and the second chamber was light blue with horizontal black stripes (2.5 cm wide) spaced 3.8 cm apart with a smooth plexiglass floor.
The conditioning procedure consisted of 20 sessions carried out consecutively over 20 days. The first three sessions were habituation sessions, during which the animals were handled for 5 minutes per day and exposed to the sights and sounds of the test room. […] The amount of time spent in each chamber was recorded using an automated infrared beam electronically coupled to a timer.
The animals were habituated as described above. […] Subsequently, the animals were then placed into the appropriate chamber for 30 minutes. This was repeated for 8 pairings over a 16 day period. On the test day, animals were placed in the CPP apparatus and allowed free access to the all of the CPP chambers and the amount of time spent in chamber was recorded.

Sprague-Dawley rats = assay: Gross locomotor activity during microdialysis (infrared motion sensor); details: nicotine, regardless of the dose of GVG
Source text: In parallel to the quantitative estimates of dopamine concentration, the locomotor response of these animals to stimulant administration was simultaneously quantified using an infrared motion sensor. This infrared optical proximity detector monitored movement of the gimbaled arm, an integral component of the freely moving system. The digital output of the detector was interfaced with an IBM personal computer and programmed to count both positive and negative arm deflections. […] Locomotor activity was then expressed as the number of deflections per sample interval.

norepinephrine (NE) = assay: Microdialysis Example 15: extracellular norepinephrine after nicotine; assay type: in vivo; details: nicotine 0.4 mg/kg s.c., saline pretreated animals
Procedure: as §1

[2] = test system: synaptic DA (11C-raclopride binding, striatum); assay: Primate PET: 11C-raclopride mean DV ratio, GVG and nicotine; assay type: in vivo, baboons (Papio anubis)
Procedure: Adult female baboons (n=16) (Papio anubis, 13-18 kg) were used for all imaging studies and carbon-11 labeled raclopride (^11C-raclopride). […] Control animals (Group 1) received two injections of ^11C-raclopride without any drug intervention in order to determine the test/retest variability of the measurement. […] Arterial blood samples were obtained throughout the study and selected plasma samples were analyzed for the presence of unchanged ^11C-raclopride. Animals were not removed from the gantry between isotope injections.
Each primate (n=16) received two ^11C-raclopride injections. […] Test/retest primates (n=7, Group 1, Table XVI) received placebo (0.9% saline, 1 ml/kg) 30 mins prior to the second radiotracer injection in order to determine the test/retest variability of the method.

[3] = test system: extracellular DA in the NACC; assay: In vivo microdialysis: nicotine-induced increases in extracellular NACC DA; parameters: species or system rats
Source text: All animals were used under an IACUC-approved protocol and with strict adherence to the NIH guidelines. Adult male Sprague-Dawley rats (200-300 g, Taconic Farms), housed in the animals care facility under 12:12 light/dark conditions, were placed into 6 groups (n=5-9), anesthetized and siliconized guide cannulae were stereotactically implanted into the right NACC (2.0 mm anterior and 1.0 mm lateral to bregms, and 7.0 mm ventral to the cortical surface) at least 4 days prior to study. […] Animals were placed in bowls, and probes were inserted and flushed with ACSF overnight. On the day of the study, a minimum of three samples were injected to determine baseline stability. Samples were collected for 20 min. and injected on-line (CMA/160, BAS). The average Dopamine concentration of these three stable samples was defined as control (100%), and all subsequent treatment values were transformed to a percentage of that control. […] The high performance liquid chromatography (HPLC) system consists of a BAS reverse-phase column (3.0 μC-18), a BAS LC-4C electrochemical transducer with a dual/glassy carbon electrode set at 650 mV, a computer that analyzes data on-line using a commercial software package (Chromograph Bioanalytical Systems), and a dual pen chart recorder. The mobile phase (flow rate 1.0 ml/min) consisted of 7.0% methanol, 50 mM sodium phosphate monobasic, 1.0 mM sodium octyl sulfate, and 0.1 mm EDNA, pH 4.0. […] Upon completion of the study, animals were decapitated and frozen sections were obtained for probe placement verification.
The open circles are control animals.
In all studies, animals were placed in the microdialysis bowls the night before the experiment and artificial cerebrospinal fluid (ACSF) was perfused through the microdialysis probes at a flow rate of 2.0 μl/min. At the end of each study, animals were sacrificed and their brains were removed and sectioned for probe placement verification.

[4] = test system: extracellular DA levels in the NACC; details: cited from earlier work
[5] = test system: mesolimbic extracellular dopamine (DA), NAcc; assay: Microdialysis Example 15: extracellular dopamine after nicotine; assay type: in vivo; details: nicotine 0.4 mg/kg s.c., saline pretreated animals
Procedure: as §1

GABAB receptors = molecular target: T1, GABAB receptors (Rattus norvegicus, UniProt Q9Z0U4); details: 2-hydroxysaclofen; cited from earlier work
T1 construct: microinjection of baclofen (0.1-1 nmol) into the ventral tegmental area; host or cells: ventral tegmental area of living animals (endogenous receptor)

rat = details: cited from earlier work
NAc DA = assay: Microdialysis: cocaine/heroin (speedball) induced increases in NAc DA; assay type: in vivo, rats
Procedure: In vivo microdialysis studies were performed using adult male Sprague-Dawley rats (Taconic Farms) as detailed previously (Morgan and Dewey, 1998). Cocaine, a dopamine reuptake inhibitor, (n=6-8) was administered (i.p.) at a dose of 20 mg/kg while heroin, an indirect dopamine releaser, (n=6-8) was administered (i.p.) at a dose of 0.5 mg/kg. In studies designed to investigate the synergistic effects of a cocaine/heroin combination (n=6-8), both drugs were administered at the identical dose used in the single drug studies. Alone cocaine produced a marked elevation in extracellular DA of approximately 380% above baseline values, 60 minutes following administration. DA returned to baseline within 120 minutes. In contrast, heroin increased NAc DA by only 70%, 60 minutes following administration, returning to baseline within 140 minutes. However, when combined, the two drugs produced an increase in NAc DA of approximately 1000%, 180 minutes following administration that had not returned to baseline values by 200 minutes after reaching peak values (FIG. 9).

[6] = test system: extracellular DA levels in the NACC; details: SCH 50911 alone; cited from earlier work
[7] = test system: extracellular DA in the NACC; assay: Microdialysis: methamphetamine-induced increases in NACC DA; assay type: in vivo, rats
Source text: All animals were used under an IACUC-approved protocol and with strict adherence to the NIH guidelines. Adult male Sprague-Dawley rats (200-300 g, Taconic Farms), housed in the animals care facility under 12:12 light/dark conditions, were placed into 6 groups (n=5-9), anesthetized and siliconized guide cannulae were stereotactically implanted into the right NACC (2.0 mm anterior and 1.0 mm lateral to bregms, and 7.0 mm ventral to the cortical surface) at least 4 days prior to study. Microdialysis probes (2.0 mm, Bioanalytical Systems, BAS, West Lafayette, Ind.) were positioned within the guide cannulae and artificial cerebrospinal fluid (ACSF, 155.0 mM NA^−, 1.1 mM Ca^2−, 2.9 mM K^−, 132.76 mM Cl^−, and 0.83 mM Mg^2−) was administered through the probe using a CMA/100 microinfusion pump (BAS) at a flow rate of 2.0 μl/min. Animals were placed in bowls, and probes were inserted and flushed with ACSF overnight. On the day of the study, a minimum of three samples were injected to determine baseline stability. Samples were collected for 20 min. and injected on-line (CMA/160, BAS). The average Dopamine concentration of these three stable samples was defined as control (100%), and all subsequent treatment values were transformed to a percentage of that control. […] The high performance liquid chromatography (HPLC) system consists of a BAS reverse-phase column (3.0 μC-18), a BAS LC-4C electrochemical transducer with a dual/glassy carbon electrode set at 650 mV, a computer that analyzes data on-line using a commercial software package (Chromograph Bioanalytical Systems), and a dual pen chart recorder. The mobile phase (flow rate 1.0 ml/min) consisted of 7.0% methanol, 50 mM sodium phosphate monobasic, 1.0 mM sodium octyl sulfate, and 0.1 mm […], pH 4.0. DA eluted at 7.5 min. Upon completion of the study, animals were decapitated and frozen sections were obtained for probe placement verification.
Methamphetamine at a dose of 1.25 mg/kg i.p. and 2.5 mg/kg i.p. was administered to the animals. It was noted that methamphetamine elevated extracellular DA concentrations in the NACC by approximately 2500% over basal levels, 100 minutes following administration of 2.5 mg/kg and approximately 1500% over basal levels following administration of 1.25 mg/kg (FIG. 6). DA returned to basal levels approximately 200 minutes following administration.

GABAA receptor complex = details: in vivo; cited from earlier work
cocaine abuser = details: case report; cited from earlier work
[8] = test system: extracellular DA in the NACC; assay: Microdialysis: ethanol-induced increases in NACC DA; assay type: in vivo, rats; details: ethanol 1.0 g/kg i.p., approximately 125 minutes following administration
Procedure: Ethanol at a dose of 1.0 g/kg i.p. was administered to the animals.

rats [9] = details: baclofen 1.25-5 mg/kg i.p. acute pretreatment; for at least four hours; cited from earlier work
male Wistar rats = details: baclofen; cited from earlier work
rats [10] = details: microinjection of baclofen into the ventral tegmental area; cited from earlier work
[11] = Nicotine 0.4 mg/kg s.c./Vehicle, 4 pairings (Table XII)
[12] = acquisition, Saline/Nicotine 0.4 mg/kg s.c., 8 pairings (Table XV)
[13] = expression, Saline/Nicotine (0.4 mg/kg s.c.) 8 pairings, saline on test day
[14] = expression, Saline/Nicotine (0.4 mg/kg s.c.) 8 pairings, saline on test day, listed as nicotine

T1 sequence (Q9Z0U4 17-960 limits assumed): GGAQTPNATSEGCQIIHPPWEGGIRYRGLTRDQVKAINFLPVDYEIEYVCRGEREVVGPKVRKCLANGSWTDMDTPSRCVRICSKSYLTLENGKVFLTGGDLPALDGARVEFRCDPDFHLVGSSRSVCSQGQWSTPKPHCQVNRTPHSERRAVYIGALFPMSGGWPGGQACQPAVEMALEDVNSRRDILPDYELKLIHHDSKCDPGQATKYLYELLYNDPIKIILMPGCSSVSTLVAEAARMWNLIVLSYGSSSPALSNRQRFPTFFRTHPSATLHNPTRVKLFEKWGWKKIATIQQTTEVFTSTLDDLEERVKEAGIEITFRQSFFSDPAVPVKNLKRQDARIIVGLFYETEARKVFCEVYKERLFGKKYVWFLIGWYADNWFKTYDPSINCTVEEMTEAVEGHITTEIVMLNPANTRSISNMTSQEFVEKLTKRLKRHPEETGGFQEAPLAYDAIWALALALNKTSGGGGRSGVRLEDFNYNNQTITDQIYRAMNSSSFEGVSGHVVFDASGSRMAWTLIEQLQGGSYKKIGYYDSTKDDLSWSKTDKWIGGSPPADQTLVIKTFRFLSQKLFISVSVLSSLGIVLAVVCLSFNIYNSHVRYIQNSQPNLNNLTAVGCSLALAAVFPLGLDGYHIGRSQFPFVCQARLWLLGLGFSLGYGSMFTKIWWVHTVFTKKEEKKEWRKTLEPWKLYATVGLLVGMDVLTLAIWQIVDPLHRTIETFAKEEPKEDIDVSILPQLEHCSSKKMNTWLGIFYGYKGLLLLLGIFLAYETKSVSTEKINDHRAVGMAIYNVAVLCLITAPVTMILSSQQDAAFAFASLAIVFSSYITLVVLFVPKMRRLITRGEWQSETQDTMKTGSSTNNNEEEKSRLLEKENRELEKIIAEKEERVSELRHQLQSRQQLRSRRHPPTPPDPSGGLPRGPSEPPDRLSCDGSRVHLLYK
T1 sequence (O88871 41-940 partner): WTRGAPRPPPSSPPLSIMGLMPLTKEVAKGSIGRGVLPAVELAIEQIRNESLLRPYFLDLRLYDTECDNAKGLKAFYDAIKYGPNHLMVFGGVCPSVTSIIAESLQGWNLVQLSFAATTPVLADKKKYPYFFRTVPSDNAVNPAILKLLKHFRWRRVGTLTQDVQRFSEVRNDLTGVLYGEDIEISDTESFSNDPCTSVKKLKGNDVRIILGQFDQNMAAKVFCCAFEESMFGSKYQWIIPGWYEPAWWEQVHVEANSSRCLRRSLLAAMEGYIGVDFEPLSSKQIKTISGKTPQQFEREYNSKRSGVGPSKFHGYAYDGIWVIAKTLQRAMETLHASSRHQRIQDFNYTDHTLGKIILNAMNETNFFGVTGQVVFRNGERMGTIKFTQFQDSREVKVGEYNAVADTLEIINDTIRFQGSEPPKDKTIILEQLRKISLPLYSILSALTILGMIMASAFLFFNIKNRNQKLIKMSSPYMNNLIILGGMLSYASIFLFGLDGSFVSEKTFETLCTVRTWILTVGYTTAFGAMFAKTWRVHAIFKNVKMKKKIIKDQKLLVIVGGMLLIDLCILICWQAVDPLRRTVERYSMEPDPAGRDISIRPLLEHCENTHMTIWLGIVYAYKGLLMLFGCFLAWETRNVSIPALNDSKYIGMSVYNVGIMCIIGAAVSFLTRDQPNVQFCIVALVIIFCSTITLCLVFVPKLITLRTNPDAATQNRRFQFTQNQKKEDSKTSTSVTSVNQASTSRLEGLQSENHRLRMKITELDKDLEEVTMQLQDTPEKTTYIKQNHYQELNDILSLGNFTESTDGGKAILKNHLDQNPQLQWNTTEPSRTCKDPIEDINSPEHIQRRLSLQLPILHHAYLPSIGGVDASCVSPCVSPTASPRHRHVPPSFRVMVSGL

CN1CCC[C@H]1c1cccnc1 [Nicotine]
5-HT increase (serotonin (5-HT)): 116±11.2%
Time spent in chambers, Paired (rats [1]; [11]): 9.4 ± 0.5 min
Time spent in chambers, Unpaired (rats [1]; [11]): 5.6 ± 0.5 min
Time spent in chambers, Paired (rats [1]; [12]): 9.6 ± 0.6^1 min
Time spent in chambers, Unpaired (rats [1]; [12]): 5.4 ± 0.6 min
Time spent in chambers, Paired (rats [1]; [13]): 9.6 ± 0.6 min
Time spent in chambers, Unpaired (rats [1]; [13]): 5.4 ± 0.6 min
Time spent in chambers, Paired (rats [1]; [14]): 9.6 ± 0.6 min
Time spent in chambers, Unpaired (rats [1]; [14]): 5.4 ± 0.6 min
gross locomotor activity (Sprague-Dawley rats): increased gross locomotor activity
NE increase (norepinephrine (NE)): 176±26%
reduction of the mean DV ratio ([2]; Group 3: nicotine alone): 12%
% Change in Mean DV Ratio ([2]; Group 3: nicotine alone 0.3 mg total, 30 minutes prior to second 11C-raclopride injection): −12.3 ± 2.6%
increase of NACC DA levels (rank order) ([3]; nicotine): 90%
time for DA to return to basal levels ([3]; nicotine 0.4 mg/kg s.c., Group 1): approximately 160 minutes
DA levels, % of basal levels ([3]; nicotine 0.4 mg/kg s.c., Group 1 (naive)): approximately 200%
increase in extracellular DA concentrations in the NACC ([3]; nicotine 0.4 mg/kg s.c., Group 1 (naive), 80 minutes following administration): approximately 100%
increase in extracellular DA levels in the NACC ([4]; nicotine 0.6 mg/kg s.c.): 220%
increase in extracellular DA levels in the NACC ([4]; nicotine 0.8 mg/kg s.c.): 179%
DA increase [5]: 70±10.5%

NCC(O)(CS(=O)(=O)O)c1ccc(Cl)cc1 (centres unmarked) [2-hydroxysaclofen]
effect of baclofen on morphine CPP (GABAB receptors): antagonized

NC(=O)CCC/N=C(\c1ccc(Cl)cc1)c1cc(F)ccc1O [progabide]
conditioned place preference or aversion, alone (rat; progabide alone): does not produce conditioned place preference or aversion
CPP response to […] i.p. of amphetamine (rat; progabide pretreatment, present for 35 minutes): did not alter the CPP response

CC(=O)Oc1ccc2c3c1O[C@H]1[C@@H](OC(C)=O)C=C[C@H]4[C@@H](C2)N(C)CC[C@@]341 [heroin]
time for DA to return to baseline (NAc DA; cocaine 20 mg/kg i.p. or heroin 0.5 mg/kg i.p. alone): ≤ 140 min
increase in NAc DA (NAc DA; heroin alone 0.5 mg/kg i.p., 60 minutes following administration): 70%

CC1(C)CO[C@@H](CC(=O)O)CN1 [SCH 50911]
DA levels when given alone [6]: does not significantly alter DA levels

CN[C@@H](C)Cc1ccccc1 [methamphetamine]
time for DA to return to basal levels ([7]; methamphetamine): approximately 200 minutes
elevation of extracellular DA concentrations in the NACC over basal levels ([7]; methamphetamine 1.25 mg/kg i.p.): approximately 1500%

Cc1nnc2n1-c1ccc(Cl)cc1C(c1ccccc1)=NC2 [alprazolam]
rate of cocaine self-administration (GABAA receptor complex): decreased the rate of cocaine self-administration

NCC1(CC(=O)O)CCCCC1 [gabapentin]
cocaine withdrawal and craving (cocaine abuser): attenuated cocaine withdrawal and craving

CCO [Ethanol]
elevation of extracellular DA concentrations in the NACC over basal levels [8]: approximately 200%

NCC(CC(=O)O)c1ccc(Cl)cc1 (centres unmarked) [baclofen]
self-administration of cocaine (rats [9]): suppress self-administration of cocaine
break points for intravenous administration of cocaine (male Wistar rats): dose-dependent decrease
rate of drug intake (male Wistar rats): did not affect the rate of drug intake
rate-current intensity curve of lateral hypothalamus stimulation (rats [10]): rightward shift of the rate-current intensity curve
